Measured values: publication PMC10065799, “High-throughput profiling of sequence recognition by tyrosine kinases and SH2 domains using bacterial peptide display” (eLife, 2023)

Key:
Assay in all cases: pTyr-Var library bacterial peptide display kinase screen (enrichment scores)
[1] = system: EPHB2 kinase domain; assay type: biochemical, human; conditions: sheet EPHB2;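 also: log2 fold change in enrichment of variant over reference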
[2] = system: Fer kinase domain; assay type: biochemical, mouse; conditions: sheet "Fer";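 also: log2 fold change in enrichment of variant over reference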
[3] = molecular target: T1, c-Abl kinase domain (Mus musculus, UniProt P00520); assay type: biochemical;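 also: log2 fold change in enrichment of variant over reference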
T1 sequence (P00520 242-493 limits assumed): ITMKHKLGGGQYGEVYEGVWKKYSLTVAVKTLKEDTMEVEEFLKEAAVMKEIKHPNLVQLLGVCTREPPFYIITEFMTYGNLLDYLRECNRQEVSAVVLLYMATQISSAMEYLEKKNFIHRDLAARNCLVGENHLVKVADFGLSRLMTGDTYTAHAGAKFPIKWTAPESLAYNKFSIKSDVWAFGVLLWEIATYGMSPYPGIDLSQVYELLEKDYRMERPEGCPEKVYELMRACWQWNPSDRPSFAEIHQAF

[4] = molecular target: c-Src kinase domain (Homo sapiens, UniProt P12931); assay type: biochemical; conditions: sheet "Src";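 also: log2 fold change in enrichment of variant over reference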
[5] = system: EPHB1 kinase domain; assay type: biochemical, human; conditions: sheet "EPHB1"; variant seq vs reference seq; bacterial peptide display enrichment
[6] = effect of variant peptide relative to its reference peptide in the pTyr-Var library screen (enrichment scores)
[7] = value of the variant peptide against its reference peptide in the pTyr-Var library screen with Fer
[8] = fig5-data2, sheet "Abl", Screen for the variant/reference peptide pair, pTyr-Var library
[9] = variant peptide versus its reference peptide in the pTyr-Var library screen
[10] = sheet "Abl", effect of variant peptide relative to its reference peptide in pTyr-Var library screen (enrichment)
[11] = effect of the variant peptide relative to its reference peptide in the pTyr-Var library screen
[12] = variant peptide relative to its reference peptide, pTyr-Var library screen enrichment

Sequence: EGTATYAAAIL [JUP_Y644_V648I]
- Screen [1, 6]: 0.4332
- Screen [2, 7]: 0.5368

Sequence: KNKELYSDPFD [PDE10A_Y300_L303P]
- Screen [2, 7]: -1.007

Sequence: WKEREYEVVRD [CPS1_Y634_I632R]
- Screen [1, 6]: 0.9502

Sequence: PQIVNYSPDCI [LDHB_Y128_K127N]
- Screen [3, 8]: -0.6074

Sequence: DGQFVYKLTDF [TBK1_Y153_S151F]
- Screen [4, 9]: -0.3973

Sequence: TVLEPYTDPFF [ZC3H18_Y367_A368T_YF]
- Screen [3, 10]: 2.315

Sequence: GEEIKYMLWLL [OTC_Y55_S60L]
- Screen [2, 7]: 1.219

Sequence: AKKMKYFEGVS [PRKDC_Y682_I680M]
- Screen [3, 8]: 0.9485

Sequence: FLAVGYHMPHI [IDS_Y225_K227M]
- Screen [3, 8]: -0.568

Sequence: FISLIYTNFEV [GSTP1_Y109_A114V_YF]
- Screen [3, 8]: 1.388
- Screen [2, 7]: 1.457
- Screen [4, 11]: 0.2277

Sequence: LRSRVYEVPVE [SLC26A3_Y756_N753S]
- Screen [1, 6]: -0.8191
- Screen [2, 12]: -0.9023

Sequence: FSTPPYLLEAA [BRIP1_Y921_S919P_YF]
- Screen [4, 11]: -1.274

Sequence: PIPIKYKAMKK [MYD88_Y257_L252P]
- Screen [3, 8]: -1.096

Sequence: DRQASYLDKVR [KRT17_Y98_L95Q]
- Screen [3, 8]: 2.325

Sequence: STTSDYQWDFS [MTDH_Y364_V368F]
- Screen [3, 8]: -0.6152

Sequence: CENCHYPILPL [LCK_Y25_V28L]
- Screen [3, 8]: 0.2762

Sequence: HNQDDYSFPSR [LDLR_Y845_G844D_YF]
- Screen [1, 6]: 1.141

Sequence: VRHRHYKHTHE [CTCF_Y343_R342H]
- Screen [3, 8]: -0.4723

Sequence: EAAFVYVISSA [WNT4_Y113_A114V]
- Screen [3, 10]: 1.673
- Screen [4, 9]: -2.147

Sequence: TEALFYTDDPA [ADPRS_Y75_T79P_YF]
- Screen [3, 8]: 1.901

Sequence: NNRVFYGNSDC [RS1_Y177_R182C]
- Screen [3, 8]: -1.349

Sequence: LWKWRYEELKE [CCDC102B_Y299_K298R]
- Screen [3, 8]: 0.5114

Sequence: GQDLLYEDEDL [PACS1_Y303_F302L]
- Screen [2, 7]: 0.4548

Sequence: PLDGEYSTLQI [TP53_Y327_F328S]
- Screen [2, 12]: 1.6
- Screen [4, 9]: -0.3767

Sequence: VNFDFYTVNLG [GFPT1_Y367_D366Y_YF]
- Screen [4, 11]: 0.9419

Sequence: SVTCTYPPALN [TP53_Y126_S127P]
- Screen [3, 10]: 1.141

Sequence: TDGIAYEFRVT [TTN_Y22256_I22261T]
- Screen [3, 10]: -3.408

Sequence: DFFDLYGGKKF [PTPN11_Y66_E69K_YF]
- Screen [4, 9]: 0.3147

Sequence: FFLGAYDRFLP [SLC22A5_Y486_V481F_YF]
- Screen [1, 6]: -0.4331
- Screen [3, 10]: -0.3891
- Screen [4, 9]: -0.1466

Sequence: FSGQVYRQRRK [TH_Y230_D227G]
- Screen [3, 10]: 0.751

Sequence: TLLAFYMGNFS [GLB1_Y552_P549L]
- Screen [3, 8]: -0.5504

Sequence: GESKDYALHAG [SVIL_Y185_V189A]
- Screen (variant relative to reference peptide, measured in the pTyr-Var library screen) [5]: -2.109

Sequence: SDMGQYQCLVF [AXL_Y115_T112M]
- Screen [2, 7]: 0.2934
- Screen [4, 11]: 0.2602

Sequence: PSDLLYIPDIQ [ITGA2B_Y845_L847P]
- Screen [4, 11]: -2.46

Sequence: PPDGEYFTLQI [TP53_Y327_L323P]
- Screen [4, 9]: 0.5031

Sequence: PKSLFYLLLKP [TRPC6_Y775_L780P]
- Screen ([1]; effect of the variant relative to its reference peptide in the pTyr-Var library screen): -1.737
- Screen [2, 12]: -0.7977
- Screen [4, 9]: -1.15

Sequence: RQNNSYTCFTA [SLC20A2_Y386_R382Q_YF]
- Screen [1, 6]: -1.481
- Screen [4, 9]: -1.243

Sequence: SVMAEYGLFAA [VSX2_Y219_G223A_YF]
- Screen [4, 9]: -0.3175

Sequence: PEPHIYAVADV [MYO9A_Y216_L211P]
- Screen [1, 6]: 0.8276
- Screen [2, 7]: 0.8588
- Screen [4, 9]: 0.7992

Sequence: FKGIVYSVSSD [DCX_Y70_A71S]
- Screen [3, 8]: -0.3809

Sequence: PLDGEYVTLQI [TP53_Y327_F328V]
- Screen [3, 10]: -0.6513
- Screen [4, 9]: -2.053

Sequence: NEKNIYGVPLM [BMPR2_Y247_R248G]
- Screen [1, 6]: 2.247
- Screen [2, 7]: 2.844
- Screen [4, 11]: 1.983

Sequence: QMVDMYASSFM [AVPR2_Y124_G122D_YF]
- Screen [4, 11]: 0.5236

Sequence: TESALYGCTIL [MAP3K21_Y724_V728I]
- Screen [2, 7]: -0.01841
- Screen [4, 11]: 0.3601

Sequence: FIIFIYAMKKK [SLCO1B1_Y645_L643F_YF]
- Screen [4, 9]: 2.408

Sequence: GMKIVYVFVKK [DNAI2_Y5_E2K_YF]
- Screen [3, 8]: 1.393

Sequence: VRFMAYTDETC [F8_Y450_F455C]
- Screen [3, 8]: 1.283

Sequence: GESLTYVSTTF [C1orf162_Y120_A121V]
- Screen [4, 11]: -2.006

Sequence: LFLALYTGLVR [PIGB_Y402_H407R]
- Screen [4, 9]: -0.3512

Sequence: PLDEEYFTLQI [TP53_Y327_G325E]
- Screen [3, 10]: -1.267
- Screen [4, 9]: -0.5709

Sequence: DRLTVYIDRVR [LMNA_Y45_A43T]
- Screen [3, 8]: -0.2946
